This passage reports EC50 and IC50 results from patent EP4563146A1 (IRBM S.P.A., priority 2023, dated 2025).

One assay relates to ZIKV replicon. The assay can be described thus: ZIKV replication inhibition assay (NanoLuc replicon in Vero cells). As to conditions: Zika virus, Vero, 72 h. In general terms: A replicon is a self-replicating genome or part of one, used to study replication in cells.
For assay [1], the target named is T1, West Nile Virus (WNV) NS2B-NS3 protease (West Nile virus, UniProt Q9Q6P4).
T1 construct: NS2B1423-1470); purchased R&D 2907-SE-020
T1 sequence (Q9Q6P4 1423-1470): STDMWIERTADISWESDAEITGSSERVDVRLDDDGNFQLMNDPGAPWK
T1 sequence (Q9Q6P4 1506-1689): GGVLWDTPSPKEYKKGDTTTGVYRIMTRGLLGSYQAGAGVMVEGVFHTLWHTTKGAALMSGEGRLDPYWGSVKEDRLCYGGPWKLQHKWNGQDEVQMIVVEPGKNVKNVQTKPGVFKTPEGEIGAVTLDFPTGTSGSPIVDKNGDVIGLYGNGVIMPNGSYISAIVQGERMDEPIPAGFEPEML
Nature of the assay: WNV protease inhibition assay. It counts as biochemical. As to conditions: Table 4; letter codes for IC50. The text has this: WNV protease inhibition assay

Setting [2] is: read-out: ZIKA Cell_Nanoluc, Vero cells with stable ZIKV replicon, 72 h, Nano-Glo readout.

The structures appear in SMILES notation. Where two headings read alike, the source gives them in different places. Some results are limits rather than exact numbers.

As to `CN(C)C[C@H]1CC[C@H]([n+]2cc([N-]C(=O)Nc3cc(NC(=O)Cc4cccc(CN)c4)cc(C(F)(F)F)c3)on2)CC1` [Example 163, ((3-(2-(3-(Aminomethyl)phenyl)acetamido)-5-(trifluoromethyl)phenyl)carbamoyl)(3-((1R,4R)-4-((dimethylamino)methyl)cyclohexyl)-1,2,3-oxadiazol-3-ium-5-yl)amide], the EC50 in the assay with ZIKV replicon (read-out: ZIKA Cell_Nanoluc) was 1000 to 20000 nM. Further, the IC50 (usually the concentration needed to halve the response being measured) in assay [1] lay within 100 to 1000 nM.
Consider `Cc1ncncc1[C@H]1CC[C@H](C[n+]2cc([N-]C(=O)Nc3ccnc(C(F)(F)F)c3)on2)CC1` [Example 241, (3-(((1R,4S)-4-(4-Methylpyrimidin-5-yl)cyclohexyl)methyl)-1,2,3-oxadiazol-3-ium-5-yl)((2-(trifluoromethyl)pyridin-4-yl)carbamoyl)-amide], for which the EC50 with ZIKV replicon (read-out: ZIKA Cell_Nanoluc) was in the range of 100 to 1000 nM. This compound also yielded an IC50 in assay [1] of under 100 nM.
On to `O=C([N-]c1c[n+]([C@H]2CCC[C@H](c3cncnc3)C2)no1)Nc1ccnc(C(F)(F)F)c1` [Example 219, (3-((1S,3S)-3-(Pyrimidin-5-yl)cyclohexyl)-1,2,3-oxadiazol-3-ium-5-yl)((2-(trifluoromethyl)pyridin-4-yl)carbamoyl)amide], for which, in the assay with ZIKV replicon (setting [2]), the EC50 was 1000 to 20000 nM. Also, the IC50 in assay [1] is 100 to 1000 nM.
For `Cc1nn(C)cc1-c1ccc(C[n+]2cc([N-]C(=O)Nc3ccnc(C(F)(F)F)c3)on2)cc1` [Example 237, (3-(4-(1,3-Dimethyl-1H-pyrazol-4-yl)benzyl)-1,2,3-oxadiazol-3-ium-5-yl)((2-(trifluoromethyl)-pyridin-4-yl)carbamoyl)amide], the EC50 in the assay on ZIKV replicon (setting [2]) lay in the range of 1000 to 20000 nM. The compound also showed an IC50 in assay [1] of 100 to 1000 nM.
With `CN(C)C[C@H]1CC[C@H]([n+]2cc([N-]C(=O)Nc3cc(NC(=O)Cc4ccccc4Cl)nc(C(F)(F)F)c3)on2)CC1` [Example 193, ((2-(2-(2-Chlorophenyl)acetamido)-6-(trifluoromethyl)pyridin-4-yl)carbamoyl)(3-((1R,4R)-4-((dimethylamino)methyl)-cyclohexyl)-1,2,3-oxadiazol-3-ium-5-yl)amide], the EC50 in the assay on ZIKV replicon (read-out: ZIKA Cell_Nanoluc) was in the range of 100 to 1000 nM. For the same compound, the IC50 in assay [1] was in the range of 1000 to 20000 nM.
As to `CC(C(=O)Nc1cc(NC(=O)[N-]c2c[n+]([C@H]3CC[C@H](CN(C)C)CC3)no2)cc(C(F)(F)F)c1)c1ccccc1` (stereo partly drawn) [Example 164, (3-((1R,4R)-4-((Dimethylamino)methyl)-cyclohexyl)-1,2,3-oxadiazol-3-ium-5-yl)((3-(2-phenylpropanamido)-5-(trifluoromethyl)phenyl)-carbamoyl)amide], the EC50 in the assay with ZIKV replicon (read-out: ZIKA Cell_Nanoluc) was in the range of 100 to 1000 nM. In addition, the IC50 in assay [1] was under 100 nM.
Regarding `Cc1cnn(C)c1-c1ccc(C[n+]2cc([N-]C(=O)Nc3ccc(C#N)c(C(F)(F)F)c3)on2)cc1` [Example 238, ((4-Cyano-3-(trifluoromethyl)phenyl)-carbamoyl)(3-(4-(1,4-dimethyl-1H-pyrazol-5-yl)benzyl)-1,2,3-oxadiazol-3-ium-5-yl)amide], the EC50 with ZIKV replicon (setting [2]) was in the range of 1000 to 20000 nM. The compound further returned a 50% inhibitory concentration (IC50) in assay [1] of 100 to 1000 nM.
`CNC(=O)[C@H]1CCC[C@@H]([n+]2cc([N-]C(=O)Nc3cc(NC(=O)Cc4ccccc4C)cc(C(F)(F)F)c3)on2)C1` [Example 232, (3-((1R,3S)-3-(Methylcarbamoyl)cyclohexyl)-1,2,3-oxadiazol-3-ium-5-yl)((3-(2-(o-tolyl)acetamido)-5-(trifluoromethyl)phenyl)-carbamoyl)amide]: in the assay with ZIKV replicon (setting [2]), the EC50 lay within 1000 to 20000 nM. For the same compound, the IC50 in assay [1] lay within 100 to 1000 nM.
With `Cc1ccccc1CC(=O)Nc1cc(NC(=O)[N-]c2c[n+]([C@H]3CCC[C@@H](CN(C)C)C3)no2)cc(C(F)(F)F)c1` (stereo in doubt) [Example 246, rac-(3-((1S,3R)-3-((Dimethylamino)methyl)-cyclohexyl)-1,2,3-oxadiazol-3-ium-5-yl)((3-(2-(o-tolyl)acetamido)-5-(trifluoromethyl)phenyl)-carbamoyl)amide], the EC50 with ZIKV replicon (setting [2]) lay in the range of 1000 to 20000 nM. Besides, the IC50 in assay [1] is under 100 nM.
In the case of `Cc1ccccc1CC(=O)Nc1cc(NC(=O)[N-]c2c[n+]([C@@H]3CCCC[C@H]3O)no2)cc(C(F)(F)F)c1` [Example 203, (3-((1R,2R)-2-Hydroxycyclohexyl)-1,2,3-oxadiazol-3-ium-5-yl)((3-(2-(o-tolyl)acetamido)-5-(trifluoromethyl)phenyl)carbamoyl)amide], the EC50 in the assay with ZIKV replicon (setting [2]) lay in the range of 100 to 1000 nM. For the same compound, in assay [1], the IC50 is 100 to 1000 nM.
Regarding `COc1ccc(NC(=O)[N-]c2c[n+](Cc3ccc(-c4c(C)ncnc4C)cc3)no2)cc1C(F)(F)F` [Example 249, (3-(4-(4,6-Dimethylpyrimidin-5-yl)benzyl)-1,2,3-oxadiazol-3-ium-5-yl)((4-methoxy-3-(trifluoromethyl)phenyl)carbamoyl)amide], the EC50 in the assay on ZIKV replicon (setting [2]) was under 100 nM. In assay [1], the concentration for half-maximal inhibition (IC50) is 100 to 1000 nM.
In the case of `CN1CCc2ccccc2C1C[n+]1cc([N-]C(=O)Nc2cc(NC(=O)Cc3ccccc3)cc(C(F)(F)F)c2)on1` (racemic) [Example 192, rac-(3-((2-Methyl-1,2,3,4-tetrahydroisoquinolin-1-yl)methyl)-1,2,3-oxadiazol-3-ium-5-yl)((3-(2-phenylacetamido)-5-(trifluoromethyl)phenyl)carbamoyl)amide], the EC50 with ZIKV replicon (setting [2]) fell in the range of 100 to 1000 nM. The IC50 in assay [1] lay within 100 to 1000 nM.
For the compound `Cc1ccccc1CC(=O)Nc1cc(NC(=O)[N-]c2c[n+](C[C@H]3CCCC[C@H]3O)no2)cc(C(F)(F)F)c1` [Example 217, (3-(((1R,2R)-2Hydroxycyclohexyl)methyl)-1,2,3-oxadiazol-3-ium-5-yl)((3-(2-(o-tolyl)acetamido)-5-(trifluoromethyl)phenyl)-carbamoyl)amide], the EC50 in the assay with ZIKV replicon (setting [2]) was under 100 nM. In assay [1], this compound displayed an IC50 of under 100 nM.
In the case of `Cc1ccccc1CC(=O)Nc1cc(NC(=O)[N-]c2c[n+](C3CCCC(CO)C3)no2)cc(C(F)(F)F)c1` (stereo not shown) [Example 265, (3-(3-(Hydroxymethyl)cyclohexyl)-1,2,3-oxadiazol-3-ium-5-yl)((3-(2-(o-tolyl)acetamido)-5-(trifluoromethyl)phenyl)carbamoyl)amide], the EC50 in the assay with ZIKV replicon (setting [2]) fell in the range of 1000 to 20000 nM. Besides, the IC50 in assay [1] lay within 100 to 1000 nM.
With `Cc1ccccc1CC(=O)Nc1cc(NC(=O)[N-]c2c[n+]([C@H]3CC[C@H](CN(C)C)CC3)no2)cc(C(F)(F)F)c1` [Example 171, (3-((1R,4R)-4-((Dimethylamino)methyl)-cyclohexyl)-1,2,3-oxadiazol-3-ium-5-yl)((3-(2-(o-tolyl)acetamido)-5-(trifluoromethyl)phenyl)-carbamoyl)amide], the EC50 in the assay on ZIKV replicon (read-out: ZIKA Cell_Nanoluc) was 100 to 1000 nM. The IC50 in assay [1] was under 100 nM.
In the case of `Cc1ncnc(C)c1-c1ccc(C[n+]2cc([N-]C(=O)Nc3ccc(O)c(C(F)(F)F)c3)on2)cc1` [Example 261, (3-(4-(4,6-Dimethylpyrimidin-5-yl)benzyl)-1,2,3-oxadiazol-3-ium-5-yl)((4-hydroxy-3-(trifluoromethyl)phenyl)carbamoyl)amide], in the assay with ZIKV replicon (setting [2]), the EC50 is under 100 nM. Moreover, the IC50 in assay [1] is under 100 nM.
With `Cc1ccccc1CC(=O)Nc1cc(NC(=O)[N-]c2c[n+]([C@H]3CCC[C@@H](CN(C)C)C3)no2)cc(C(F)(F)F)c1` [Example 213, (3-((1S,3R)-3-((Dimethylamino)methyl)-cyclohexyl)-1,2,3-oxadiazol-3-ium-5-yl)((3-(2-(o-tolyl)acetamido)-5-(trifluoromethyl)phenyl)carbamoyl)amide], the EC50 in the assay with ZIKV replicon (setting [2]) lay in the range of 1000 to 20000 nM. The IC50 in assay [1] fell in the range of 100 to 1000 nM.
